pIC50: −log10 of the molar value. Values after ≈ are worked out from the molar mass of the structure shown. Read-outs that look alike come from different tables or passages of the source.
Columns and labels:
[1] = target: T1, MRSA PK (Staphylococcus aureus, UniProt Q6GG09); experiment: MRSA PK activity, continuous LDH-coupled assay; type: biochemical, S. aureus (MRSA strain Sanger 252); conditions: for inhibition at 10 µM: read-out: % inhibition at the highest concentration tested (IC50)
T1 construct: His tag (pET-28a(+) vector) (N); made in house; host or cells: E. coli BL-21 (DE3)
Excerpt: Genomic DNA of MRSA strain Sanger 252 extracted using DNeasy Tissue Kit™ (Qiagen™) was used as a template to generate the His-tagged MRSA PK. Human cDNA from MCF-7 breast cancer cell line (courtesy of Dr. J Wong, BC Cancer Research Center (Vancouver, Canada) was used as a template to generate the full-length human M2 PK enzyme. The following primer sets were used creating appropriate restriction sites (NdeI and XhoI sites underlined): For cloning of MRSA PK: M27F 5′-[…]-3′ and M27R 5′-[…]-3′, for cloning of human M2 PK isoform: hM2F 5′-[…]-3′ and hM2R 5′-[…]-3′. The resulting PCR fragments for each construct were cloned into the NdeI and XhoI unique sites of the bacterial expression vector pET-28a (+) (Novagen™). […] The sequence and the correct reading frame of all constructs were verified by sequencing. Human M1, R and L PK constructs in pET-28-a(+) vectors (courtesy of Dr. L. Cantley, Harvard Medical, School (Boston, USA)) were used to generate relevant recombinant His-tagged human PK isoforms.
MRSA and human constructs in pET-28a(+) were used to express relevant recombinant PK proteins in E. coli BL-21 (DE3). The proteins were expressed and purified using Ni-NTA agarose (Qiagen™) according to the manufacturer's protocol. Briefly, cells were grown to an absorbance of 0.4-0.5 at 600 nm in 2×YT medium, then induced with 0.1 mM IPTG for 3 h at 20° C. Cells were lysed by sonication on ice (3×10-s bursts with a 30-s recovery between bursts) in lysis buffer (0.2 mg/ml lysozyme, 50 mM Tris pH 7.5, 10 mM MgCl2, 200 mM NaCl, 100 mM KCl, 10% glycerol, 10 mM imidazole, 0.5% NP-40 and 1 mM DTT containing Complete™ protease inhibitor). Cell lysates were cleared by centrifugation (18,000×g in a Beckman™ JA-20 rotor) for 20 min at 4° C. and PK isoforms were purified by batch binding to Ni-NTA resin. The resins were then packed in columns (1×2 cm) and washed with 400 column volumes lysis buffer containing 30 mM imidazole. His-tagged PK isoforms were eluted with the same buffer containing 300 mM imidazole. The proteins were dialyzed overnight at 4° C. against 2000 volumes of ice-cold 30 mM Tris pH 7.5, 25 mM KCl, 5 mM MgCl2, 10% glycerol and 1 mM DTT to remove imidazole. All purification steps were done at 4° C.; enzymes were flash-frozen and stored at −70° C. […] Purity and physical integrity of proteins were assessed using SDS-polyacrylamide gel electrophoresis (SDS-PAGE) followed by coomassie blue staining. Protein concentration was estimated by Bradford assay (Bio-Rad Protein Assay™) using bovine serum albumin as a standard.
Candidate MRSA PK inhibitors were assayed for their ability to inhibit enzymatic activities of MRSA and human PKs. PK activity was determined using a continuous assay coupled to lactate dehydrogenase (LDH) in which the change in absorbance at 340 nm owing to oxidation of NADH was measured using a Benchmark Plus™ microplate spectrophotometer (Bio-Rad Laboratories, Hercules, Calif.). […] Reactions were initiated by the addition of 15 nM of one of the PK enzymes. PK activity proportional to the rate of change at 340 nm was expressed as specific activity (μmol/min/mg), which is defined as the amount of PK that catalyzes the formation of one micromole of either product per minute. Inhibitors were dissolved in DMSO with the final concentration of the solvent never exceeding 1% of the assay volume. IC50 values were calculated by curve fitting on a four-parameter dose-response model with variable slope using Graphpad Prism 5.0™ (GraphPad™ Software Inc., La Jolla, Calif.). […] Reactions were performed at 30° C. for up to 5 min. All values determined represent at least two measurements, in triplicate (Tables 1-6) or duplicate unless mentioned otherwise.

[2] = system: S. aureus ATCC 29213; experiment: In vitro susceptibility, broth microdilution MIC; type: cell-based, Staphylococcus aureus
Method: The antimicrobial activities of PK inhibitor candidates were determined using the 96-well microtiter standard 2-fold serial broth microdilution method as described by CLSI (formerly NCCLS) with the various gram-positive and gram-negative bacteria species mentioned above. Bacteria from a single colony were grown, overnight in either BHI Broth (VRE), mueller hinton broth (S. aureus 29213; MRSA USA400) or L-broth (E. coli, P. aeruginosa, S. typhimuriu, K. Pneumonia and A. baumannii). […] Culture plates were incubated for 18-24 h at 37° C., and optical density at 600 nm (OD600) was measured using a Benchmark Plus™ microplate spectrophotometer (Bio-Rad™). The absorbance control values for the series containing CAMHB and inhibitor were subtracted as background from the corresponding infected wells. The MIC was defined as the lowest concentration of test compound leading to complete inhibition of cell growth in relationship to compound-free control wells as determined by optical density. […] All assays were run in triplicate (Tables 1-6) or duplicate. Experiments were replicated at least twice to verify reproducibility using the above conditions.

[3] = Staphylococcus aureus, ATCC29213, Table 8, tested at least in duplicate, differing values all given, read-out: MIC
[4] = Staphylococcus aureus, ATCC29213, Tables 1-6 and text, minimum concentration to give >98% inhibition of growth, read-out: MIC
[5] = Tables 1-6, 2 mM ADP, 10 mM PEP, 15 nM PK, read-out: IC50

T1 sequence (Q6GG09 whole entry): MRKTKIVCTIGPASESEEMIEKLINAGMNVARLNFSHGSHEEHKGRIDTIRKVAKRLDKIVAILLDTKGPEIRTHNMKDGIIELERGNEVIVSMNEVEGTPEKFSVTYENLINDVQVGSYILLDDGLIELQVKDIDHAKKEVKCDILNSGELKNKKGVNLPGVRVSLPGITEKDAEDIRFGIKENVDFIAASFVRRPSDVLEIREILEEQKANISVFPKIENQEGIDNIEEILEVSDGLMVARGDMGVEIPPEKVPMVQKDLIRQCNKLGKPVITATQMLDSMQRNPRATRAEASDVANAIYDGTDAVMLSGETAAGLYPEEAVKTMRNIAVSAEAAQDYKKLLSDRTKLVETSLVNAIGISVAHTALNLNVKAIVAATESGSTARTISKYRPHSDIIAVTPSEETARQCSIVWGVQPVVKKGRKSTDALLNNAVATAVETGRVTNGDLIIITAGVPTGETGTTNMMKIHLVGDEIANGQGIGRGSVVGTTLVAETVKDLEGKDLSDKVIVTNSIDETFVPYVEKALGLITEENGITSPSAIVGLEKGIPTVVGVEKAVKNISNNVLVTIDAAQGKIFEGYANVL

Row | Structure (SMILES) | pIC50 [1] | MIC [2, 3] | MIC [2, 4] | also measured
1 | Clc1ccc(CCc2cc3ccc(Br)cc3[nH]2)cn1 [Compound 120, 6-Bromo-2-(2-(6-chloropyridin-3-yl)ethyl)-1H-indole] | 7.00 to 7.30 | > 64 µg/mL |  | 
2 | Brc1ccc2cc(/C=C/c3ccc4ccccc4n3)[nH]c2c1 [Compound 101, (E)-2-(2-(6-bromo-1H-indol-2-yl)vinyl)quinoline] | < 6.00 | > 64 µg/mL | > 64 µg/mL | 
3 | Clc1cc(Cl)cc(/C=C/c2cc3ccc(Br)cc3[nH]2)c1 [Compound 95, (E)-6-Bromo-2-(3,5-dichlorostyryl)-1H-indole] | > 7.30 | 7.1 µg/mL (≈ 19.3 µM) |  | MIC ([2]; Table 8, tested at least in duplicate, differing values all given): 8 µg/mL (≈ 21.8 µM)
4 | COC(=O)c1cc(Br)cc2[nH]c(/C=C/c3ccc(Cl)cc3)cc12 [Compound 157, (E)-Methyl 6-bromo-2-(4-chlorostyryl)-1H-indole-4-carboxylate] | < 6.00 | > 64 µg/mL |  | 
5 | Cn1c(C#Cc2cc3ccc(Br)cc3[nH]2)cc2ccc(Br)cc21 [Compound 26a, 6-bromo-2-((6-bromo-1H-indol-2-yl)ethynyl)-1-methyl-1H-indole] |  |  | > 64 µg/mL | pIC50 [1, 5]: 7.86
6 | Brc1ccc2[nH]c(C#Cc3cc4cc(Br)ccc4[nH]3)cc2c1 [Compound 45, 1,2-bis(5-Bromo-1H-indol-2-yl)ethyne] |  |  | > 64 µg/mL | inhibition at 10 µM [1]: 60%
7 | O=C(Nc1nc2ccc(Br)cc2[nH]1)c1cc(Br)ccc1O [Compound 78, 5-Bromo-N-(6-bromo-1H-benzo[d]imidazol-2-yl)-2-hydroxybenzamide] | 7.95 |  | 4 µg/mL (≈ 9.73 µM) | 
8 | O=C(Nc1nc2ccc(Br)cc2s1)c1ccc(Br)cc1O [Compound 67, 4-Bromo-N-(6-bromobenzo[d]thiazol-2-yl)-2-hydroxybenzamide] |  |  | > 64 µg/mL | pIC50 [1, 5]: 6.67
9 | COc1ccc2[nH]c(-c3[nH]c4cc(Br)ccc4c3C(=O)C(F)(F)F)cc2c1 [Compound 179, 1-(6-bromo-5′-methoxy-1H,1′H-[2,2′-biindol]-3-yl)-2,2,2-trifluoroethan-1-one] | > 7.30 | 64 µg/mL (≈ 146 µM) |  | 
10 | Clc1cc(Cl)cc(CCc2cc3ccc(Br)cc3[nH]2)c1 [Compound 119, 6-Bromo-2-(3,5-dichlorophenethyl)-1H-indole] | < 4.00 | > 64 µg/mL |  | 
11 | Brc1ccc2[nH]c(-c3cc4cc(Br)c(Br)cc4[nH]3)cc2c1 [Compound 10m, 5,5′,6-Tribromo-1H,1′H-2,2′-biindole] |  |  | 1 µg/mL (≈ 2.13 µM) | pIC50 [1, 5]: 8.80
12 | O=C(Nc1ccc(Cl)cc1)c1[nH]c2cc(Br)ccc2c1C(=O)O [Compound 129, 6-Bromo-2-((4-chlorophenyl)carbamoyl)-1H-indole-3-carboxylic acid] | > 7.30 | 16 µg/mL (≈ 40.6 µM) |  | 
13 | Oc1ccc(Br)cc1/C=N/c1nc2ccc(Br)cc2s1 [Compound 58] |  |  | 64 µg/mL (≈ 155 µM) | inhibition at 10 µM [1]: 77%
14 | O=C(Nc1ccc(Br)cc1)c1cc2ccc(Br)cc2s1 [Compound 71, 6-bromo-N-(4-bromophenyl)benzo[b]thiophene-2-carboxamide] |  |  | > 64 µg/mL | inhibition at 10 µM [1]: 55%
15 | COC(=O)c1c(C(=O)Nc2ccc(Cl)cc2)[nH]c2cc(Br)ccc12 [Compound 130, Methyl 6-bromo-2-((4-chlorophenyl)carbamoyl)-1H-indole-3-carboxylate] | > 7.30 | > 64 µg/mL |  | 
16 | COC(=O)c1c(C(=O)Nc2ccc(Cl)nc2)[nH]c2cc(Br)ccc12 [Compound 138, Methyl 6-bromo-2-((6-chloropyridin-3-yl)carbamoyl)-1H-indole-3-carboxylate] | > 7.30 | > 64 µg/mL |  | 
17 | Cn1c(C(=O)Nc2nc3ccc(Br)cc3s2)cc2ccccc21 [Compound 69, N-(6-Bromobenzo[d]thiazol-2-yl)-1-methyl-1H-indole-2-carboxamide] |  |  | > 64 µg/mL | inhibition at 10 µM [1]: 61%
18 | O=C(Nc1cccc(Br)c1O)c1cc2ccc(Br)cc2[nH]1 [Compound 64, 6-Bromo-N-(3-bromo-2-hydroxyphenyl)-1H-indole-2-carboxamide] |  |  | > 64 µg/mL | pIC50 [1, 5]: 6.94
19 | COC(=O)c1c(C(=O)Nc2ccc(OC)cc2)[nH]c2cc(Br)ccc12 [Compound 133, Methyl 6-bromo-2-((4-methoxyphenyl)carbamoyl)-1H-indole-3-carboxylate] | > 7.30 | > 64 µg/mL |  | 
20 | Brc1cncc(CCc2cc3ccc(Br)cc3[nH]2)c1 [Compound 121, 6-Bromo-2-(2-(5-bromopyridin-3-yl)ethyl)-1H-indole] | < 6.00 | > 64 µg/mL |  | 
21 | O=C(c1c(/C=C/c2ccc(Br)cn2)[nH]c2cc(Br)ccc12)C(F)(F)F [Compound 174, (E)-1-(6-Bromo-2-(2-(5-bromopyridin-2-yl)vinyl)-1H-indol-3-yl)-2,2,2-trifluoroethanone] | < 6.00 | 32 µg/mL (≈ 67.5 µM) |  | 
22 | O=C(Nc1cc(Br)ccc1O)c1cc2ccc(Br)cc2[nH]1 [Compound 62, 6-Bromo-N-(5-bromo-2-hydroxyphenyl)-1H-indole-2-carboxamide] | 7.91 |  | > 64 µg/mL | 
23 | Clc1ccc(/C=C/c2cc3ccc(Br)cc3[nH]2)nc1 [Compound 108, (E)-6-Bromo-2-(2-(5-chloropyridin-2-yl)vinyl)-1H-indole] | 6.00 to 7.00 | > 64 µg/mL |  | 
24 | Cn1c(C#Cc2cc3cc(Br)ccc3[nH]2)cc2cc(Br)ccc21 [Compound 48, 5-Bromo-2-((5-bromo-1H-indol-2-yl)ethynyl)-1-methyl-1H-indole] |  |  | > 64 µg/mL | inhibition at 10 µM [1]: 60%
25 | O=C(O)c1cc(Br)cc2[nH]c(/C=C/c3ccc(Cl)cc3)cc12 [Compound 158, (E)-6-Bromo-2-(4-chlorostyryl)-1H-indole-4-carboxylic acid] | < 6.00 | 32 µg/mL (≈ 85 µM) |  | 
26 | Clc1cnc(/C=C/c2cc3ccc(Br)cc3[nH]2)cn1 [Compound 118, (E)-6-Bromo-2-(2-(5-chloropyrazin-2-yl)vinyl)-1H-indole] | 7.00 to 7.30 | 16 µg/mL (≈ 47.8 µM) |  | 
27 | Brc1ccc2cc(CCc3cn4ccccc4n3)[nH]c2c1 [Compound 125, 2-(2-(6-Bromo-1H-indol-2-yl)ethyl)imidazo[1,2-a]pyridine] | < 6.00 | > 64 µg/mL |  | 
28 | COc1ccc(Br)cc1C(=O)Nc1nc2ccc(Br)cc2s1 [Compound 68, 5-Bromo-N-(6-bromobenzo[d]thiazol-2-yl)-2-methoxybenzamide] | 8.08 |  | > 64 µg/mL | 
